# Measurements as given in patent publication US20180071317A1, “USE OF AGENTS THAT ALTER THE PERITUMORAL ENVIRONMENT FOR THE TREATMENT OF CANCER” (SERVICIO ANDALUZ DE SALUD, priority 2011, published 2018).
# What was measured:
# [1] = test system: fibroblasts (PHF) co-cultured with tumor cells of human breast carcinoma (MCF-7); experiment: Marker expression (IHC) in PHF co-cultured with MCF-7 tumor cells; assay type: cell-based; conditions: co-culture with MCF-7; SP 1 μM + antagonist 1 μM; 48 h;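 further: value is the percentage of fibroblasts positive for each marker, with fibroblasts cultured alone as reference, grown in fresh plasma from a healthy donor, six replicates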
# Procedure: (§1) All cultures were maintained 48 hours, following which the same cells were included in paraffin blocks for subsequent analysis of the expression of different markers by immunohistochemistry (see Example 1). […] All experiments were carried out sixfold. Analyzed markers in fibroblast cells (stromal cells) were: TGF-α, TGF-β1, TGF-β2, TGF-β3, SPARC, MMP-3, MMP-7, MMP-9, MMP-11, MMP-13 and MMP-14.
# [2] = test system: fibroblasts (PHF) co-cultured with tumor cells of lung carcinoma (A-427); experiment: Marker expression (IHC) in PHF co-cultured with A-427 tumor cells; assay type: cell-based, human; conditions: co-culture with A-427 lung carcinoma; SP 1 μM + antagonist 1 μM; 48 h;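 further: cultures grown in human blood plasma from a healthy donor, value is the percentage of fibroblasts positive for each marker, six replicates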
# Procedure: as §1
# [3] = test system: fibroblasts (PHF) co-cultivated with tumor cell carcinoma of urinary bladder (5637); experiment: Marker expression (IHC) in PHF co-cultured with 5637 tumor cells; assay type: cell-based, human; conditions: co-culture with 5637; SP 1 μM + antagonist 1 μM; 48 h
# Procedure: as §1
# [4] = test system: human primary fibroblasts (PHF); experiment: Marker expression (immunohistochemistry) in human primary fibroblasts with SP alone or with NK1 antagonists; assay type: cell-based; conditions: SP 1 μM + antagonist 1 μM; 48 h;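 further: primary human dermal fibroblasts, immunostained with rabbit polyclonal antibodies against each marker, value is percentage of stained cells among all cells counted in 20 fields at 400× per section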
# Procedure: These PHF were obtained and purified from samples obtained from the dermis of the skin of healthy volunteers as described in De Bari et al (De Bari et al. 2001). Briefly, small pieces of skin dermis were digested in a solution of hyaluronidase (Sigma-Aldrich, USA) at a concentration of 1 mg/ml for 15 minutes at 37° C. and then treated with 6 mg/ml collagenase type IV (Invitrogen) for 2 hours at 37° C. Then, the cells were washed, resuspended in DMEM culture medium with high glucose (Dulbecco's Modified Eagle's Medium, Invitrogen) supplemented with 1% antibiotic-antimycotic (Invitrogen) and 1% pyruvate Sodium (Invitrogen), and seeded in culture dishes at a concentration of 10,000 cells per square centimeter. When the cells reached confluence, adherent cells were detached using 0.5% sterile trypsin (Invitrogen) and used between passages 3 and 9. For tests shown below, the PHF were plated in 24-well plates at a concentration of 25,000 cells per well.
# After 48 hours of culture, cells were harvested and paraffin cell-blocks for immunohistochemical analysis were constructed, as previously explained in Example 1.
# In immunohistochemical assays the expression of the following markers were studied: TGFα (SAB4502953), TGF1 (SAB4502954), TGFβ2 (SAB4502956), TGFβ3 (SAB4502957), SPARC (HPA002989), MMP-3 (HPA007875) MMP-7 (SAB4501894), MMP-9 (SAB4501896), MMP-11 (SAB4501898), MMP-13 (SAB4501900) and MMP-14 (SAB4501901) using specific antibodies against them. All antibodies used were rabbit polyclonal antibodies obtained from Sigma-Aldrich and were used at a concentration of 1/1000. All experiments were carried out sixfold.
# On each of the six sections cell counts were performed in 20 high power fields (400×) through an Olympus microscope (model CX31) to assess the immunostaining. On each of the fields total cell number and number of cells displaying immunostaining were counted, being then the percentage of cells displaying said immunostaining.
# [5] = test system: tumors from the tumor cell lines of Table 9; experiment: Mean tumor volume in nude mice injected subcutaneously with human tumor cells; conditions: 30 mg/kg/day oral, 7 days
# [6] = test system: fibroblasts (PHF) co-cultured with tumor cells, thyroid carcinoma (reference A-427); experiment: Marker expression (IHC) in PHF co-cultured with thyroid carcinoma tumor cells; assay type: cell-based, human; conditions: co-culture with thyroid carcinoma cells; SP 1 μM + antagonist 1 μM; 48 h;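 further: grown in fresh plasma from a healthy human donor, read-out is percent of fibroblasts positive for each marker, compared with fibroblasts cultured alone, run in six replicates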
# Procedure: as §1
# [7] = test system: fibroblasts (PHF) co-cultured with tumor cells, thyroid carcinoma; experiment: as above; assay type: cell-based, human; conditions: co-culture with thyroid carcinoma cells; SP 1 μM + antagonist 1 μM; 48 h
# Procedure: as §1
# [8] = test system: fibroblasts (PHF) co-cultured with tumor cells of human colon adenocarcinoma (SW-403); experiment: Marker expression (IHC) in PHF co-cultured with SW-403 tumor cells; assay type: cell-based; conditions: co-culture with SW-403; SP 1 μM + antagonist 1 μM; 48 h
# Procedure: All cultures were maintained 48 hours, following which the same cells were included in paraffin blocks for subsequent analysis of the expression of different markers by immunohistochemistry (see Example 1). The primary antibodies used to perform immunohistochemical assays and their concentration are detailed in Example 2. All experiments were carried out sixfold. Analyzed markers in fibroblast cells (stromal cells) were: TGF-α, TGF-β1, TGF-β2, TGF-β3, SPARC, MMP-3, MMP-7, MMP-9, MMP-11, MMP-13 and MMP-14.
# [9] = test system: fibroblasts (PHF) co-cultured with tumor cells of human Edwing sarcoma (MHH-ES-1); experiment: Marker expression (IHC) in PHF co-cultured with MHH-ES-1 tumor cells; assay type: cell-based; conditions: PHF co-cultured with MHH-ES-1 + SP + NK1 antagonist
# Procedure: as §1
smiles,measurement,setting,value
C[C@@H](O[C@H]1OCCN(Cc2n[nH]c(=O)[nH]2)[C@H]1c1ccc(F)cc1)c1cc(C(F)(F)F)cc(C(F)(F)F)c1 [Aprepitant],PHF cells expressing MMP-3,[1],0%
same,PHF cells expressing MMP-7,[1],0%
same,PHF cells expressing MMP-9,[1],0%
same,PHF cells expressing MMP-11,[1],0%
same,PHF cells expressing MMP-13,[1],0%
same,PHF cells expressing MMP-14,[1],0%
same,PHF cells expressing SPARC,[1],0%
same,PHF cells expressing TGF-α,[1],0%
same,PHF cells expressing TGF-β1,[1],0%
same,PHF cells expressing TGF-β2,[1],0%
same,PHF cells expressing TGF-β3,[1],0%
same,PHF cells expressing MMP-3,[2],0%
same,PHF cells expressing MMP-7,[2],0%
same,PHF cells expressing MMP-9,[2],0%
same,PHF cells expressing MMP-11,[2],0%
same,PHF cells expressing MMP-13,[2],0%
same,PHF cells expressing MMP-14,[2],0%
same,PHF cells expressing SPARC,[2],0%
same,PHF cells expressing TGF-α,[2],0%
same,PHF cells expressing TGF-β1,[2],0%
same,PHF cells expressing TGF-β2,[2],0%
same,PHF cells expressing TGF-β3,[2],0%
same,PHF cells expressing MMP-3,[3],0%
same,PHF cells expressing MMP-7,[3],0%
same,PHF cells expressing MMP-9,[3],0%
same,PHF cells expressing MMP-11,[3],0%
same,PHF cells expressing MMP-13,[3],0%
same,PHF cells expressing MMP-14,[3],0%
same,PHF cells expressing SPARC,[3],0%
same,PHF cells expressing TGF-α,[3],0%
same,PHF cells expressing TGF-β1,[3],0%
same,PHF cells expressing TGF-β2,[3],0%
same,PHF cells expressing TGF-β3,[3],0%
same,PHF cells expressing MMP-3,[4],0%
same,PHF cells expressing MMP-7,[4],0%
same,PHF cells expressing MMP-9,[4],0%
same,PHF cells expressing MMP-11,[4],0%
same,PHF cells expressing MMP-13,[4],0%
same,PHF cells expressing MMP-14,[4],0%
same,PHF cells expressing SPARC,[4],0%
same,PHF cells expressing TGFα,[4],0%
same,PHF cells expressing TGFβ 1,[4],0%
same,PHF cells expressing TGFβ 2,[4],0%
same,PHF cells expressing TGFβ 3,[4],0%
same,Mean tumor volume,[5]; B lymphoblastic leukemia (peripheral human B lymphoblastoid cells) SD1,103 ± 8
same,Mean tumor volume,[5]; Carcinoma of human non-small cell lung COR-L23,102 ± 5
same,Mean tumor volume,[5]; Carcinoma of human non-small cell lung H-1963,98 ± 5
same,Mean tumor volume,[5]; Carcinoma of human non-small cell lung HCC-44,105 ± 7
same,Mean tumor volume,[5]; Carcinoma of human small cell lung H-209,104 ± 6
same,Mean tumor volume,[5]; Carcinoma of human urinary bladder 5637,102 ± 4
same,Mean tumor volume,[5]; Human B lymphoma BC-1,108 ± 5
same,Mean tumor volume,[5]; Human Burkitt lymphoma CA-46,109 ± 7
same,Mean tumor volume,[5]; Human Fibrosarcoma HT-1080,100 ± 4
same,Mean tumor volume,[5]; Human Hodgkin lymphoma KM-H2,101 ± 5
same,Mean tumor volume,[5]; Human Rhabdomyosarcoma A-204,102 ± 8
same,Mean tumor volume,[5]; Human T-cell leukemia/NK YT,106 ± 6
same,Mean tumor volume,[5]; Human T-lymphoma DERL human Hodgkin 7Linfoma KM-H2,105 ± 6
same,Mean tumor volume,[5]; Human breast adenocarcinoma humano MCF-7,95 ± 6
same,Mean tumor volume,[5]; Human breast carcinoma MDA-MB-468,99 ± 7
same,Mean tumor volume,[5]; Human breast carcinoma MT-3,109 ± 2
same,Mean tumor volume,[5]; Human choriocarcinoma AC-1M32,112 ± 4
same,Mean tumor volume,[5]; Human colon carcinoma SW-403,79 ± 4
same,Mean tumor volume,[5]; Human endometrial carcinoma AN3-CA,90 ± 4
same,Mean tumor volume,[5]; Human endometrial stromal sarcoma ESS-1,107 ± 4
same,Mean tumor volume,[5]; Human folicular thyroid carcinoma TT2609-C02,105 ± 7
same,Mean tumor volume,[5]; Human gastric adenocarcinoma 23132/87,77 ± 6
same,Mean tumor volume,[5]; Human glioma GAMG,108 ± 8
same,Mean tumor volume,[5]; Human lung carcinoma A-427,104 ± 4
same,Mean tumor volume,[5]; Human lung carcinoma DV-90,97 ± 3
same,Mean tumor volume,[5]; Human lymphoblastic leukemia T BE-13,102 ± 6
same,Mean tumor volume,[5]; Human malignant fibrous histiocytoma U-2197,102 ± 6
same,Mean tumor volume,[5]; Human melanoma MEL HO,104 ± 5
same,Mean tumor volume,[5]; Human multiple myeloma COLO-677,102 ± 6
same,Mean tumor volume,[5]; Human neuroblastoma KELLY,105 ± 6
same,Mean tumor volume,[5]; Human neuroblastoma bone marrow SKN-BE 2,97 ± 9
same,Mean tumor volume,[5]; Human osteosarcoma CAL-72,112 ± 4
same,Mean tumor volume,[5]; Human ovarian adenocarcinoma EFO-27,98 ± 7
same,Mean tumor volume,[5]; Human ovarian carcinoma COLO-704,101 ± 7
same,Mean tumor volume,[5]; Human pancretic adenocarcinoma CAPAN-1,86 ± 8
same,Mean tumor volume,[5]; Human pancretic adenocarcinoma PA-TU 8902,102 ± 7
same,Mean tumor volume,[5]; Human papillary thyroid carcinoma metastasizing B-CPAP,102 ± 4
same,Mean tumor volume,[5]; Human prostate carcinoma 22RV1,103 ± 5
same,Mean tumor volume,[5]; Human retinoblastoma WERI-Rb-1,99 ± 4
same,Mean tumor volume,[5]; Human thyroid carcinoma 8505C,105 ± 3
same,Mean tumor volume,[5]; Human uterine cervix carcinoma KB,103 ± 9
same,Mean tumor volume,"[5]; Melanoma humano, metástasis en ganglio linfático COLO 858",109 ± 4
same,Mean tumor volume,[5]; Sarcoma human Edwing MHH-ES-1,103 ± 5
same,Mean tumor volume,[5]; Transitional Carcinoma of human urinary bladder RT-4,102 ± 6
same,PHF cells expressing MMP-3,[6],0%
same,PHF cells expressing MMP-7,[6],0%
same,PHF cells expressing MMP-9,[6],0%
same,PHF cells expressing MMP-13,[6],0%
same,PHF cells expressing MMP-14,[6],0%
same,PHF cells expressing SPARC,[6],0%
same,PHF cells expressing TGF-α,[6],0%
same,PHF cells expressing TGF-β1,[6],0%
same,PHF cells expressing TGF-β2,[6],0%
same,PHF cells expressing TGF-β3,[6],0%
same,PHF cells expressing MMP-11,[7],0%
same,PHF cells expressing MMP-3,[8],0%
same,PHF cells expressing MMP-7,[8],0%
same,PHF cells expressing MMP-9,[8],0%
same,PHF cells expressing MMP-11,[8],0%
same,PHF cells expressing MMP-13,[8],0%
same,PHF cells expressing MMP-14,[8],0%
same,PHF cells expressing SPARC,[8],0%
same,PHF cells expressing TGF-α,[8],0%
same,PHF cells expressing TGF-β1,[8],0%
same,PHF cells expressing TGF-β2,[8],0%
same,PHF cells expressing TGF-β3,[8],0%
same,cells expressing MMP-3,[9],0%
same,cells expressing MMP-7,[9],0%
same,cells expressing MMP-9,[9],0%
same,cells expressing MMP-11,[9],0%
same,cells expressing MMP-13,[9],0%
same,cells expressing MMP-14,[9],0%
same,cells expressing SPARC,[9],0%
same,cells expressing TGF-α,[9],0%
same,cells expressing TGF-β1,[9],0%
same,cells expressing TGF-β2,[9],0%
same,cells expressing TGF-β3,[9],0%
